Measured values taken from patent EP4273147A1, “SUBSTITUTED SPIROLACTAMS, SALTS THEREOF AND THEIR USE AS HERBICIDALLY ACTIVE SUBSTANCES” (Bayer Aktiengesellschaft, priority 2022, dated 2023).

Columns and labels:
POAAN [1] = assay: Herbicidal pre-emergence action (Table A7); assay type: in vivo, Poa annua; settings: visual grading after ca. 3 weeks
From the text: (§1) Seeds of mono- and dicotyledonous weed plants were sown in plastic pots (double sowings with one species of mono- and one species of dicotyledonous weed plants per pot), in sandy loam, and covered with soil.

VERPE [2] = assay: Herbicidal pre-emergence action (Table A11); assay type: in vivo, Veronica persica; settings: application rate 1280 g/ha; visual grading after ca. 3 weeks
From the text: as §1

DIGSA = assay: Herbicidal pre-emergence action (Table A12); assay type: in vivo, Digitaria sanguinalis; settings: visual grading after ca. 3 weeks
From the text: as §1

ALOMY = assay: Herbicidal pre-emergence action (Table A9); assay type: in vivo, Alopecurus myosuroides; settings: application rate 1280 g/ha; visual grading after ca. 3 weeks
From the text: as §1

STEME = assay: Herbicidal pre-emergence action (Table A6); assay type: in vivo, Stellaria media; settings: application rate 1280 g/ha; visual grading after ca. 3 weeks
From the text: as §1

SETVI [3] = assay: Herbicidal pre-emergence action (Table A5); assay type: in vivo, Setaria viridis; settings: visual grading after ca. 3 weeks
From the text: as §1

ECHCG [4] = assay: Herbicidal pre-emergence action (Table A2); assay type: in vivo, Echinochloa crus-galli; settings: visual grading after ca. 3 weeks
From the text: as §1

LOLRI = assay: Herbicidal pre-emergence action (Table A3); assay type: in vivo, Lolium rigidum; settings: visual grading after ca. 3 weeks
From the text: as §1

POAAN [5] = assay: Herbicidal post-emergence action (Table B7); assay type: in vivo, Poa annua; settings: application rate 1280 g/ha
Procedure: (§2) Seeds of mono- and dicotyledonous weed plants were placed in plastic pots in sandy loam soil (doubly sown with in each case one species of mono- or dicotyledonous weed plants per pot), covered with soil and cultivated in a greenhouse under controlled growth conditions. 2 to 3 weeks after sowing, the test plants were treated at the one-leaf stage. […] After the test plants had been kept in the greenhouse under optimum growth conditions for about 3 weeks, the activity of the preparations was rated visually in comparison to untreated controls. For example, 100% activity = the plants have died, 0% activity = like control plants.

MATIN = assay: Herbicidal pre-emergence action (Table A4); assay type: in vivo, Matricaria inodora; settings: visual grading after ca. 3 weeks
From the text: as §1

SETVI [6] = assay: Herbicidal post-emergence action (Table B8); assay type: in vivo, Setaria viridis; settings: application rate 1280 g/ha
Procedure: as §2

ECHCG [7] = assay: Herbicidal post-emergence action (Table B3); assay type: in vivo, Echinochloa crus-galli; settings: application rate 1280 g/ha; rated visually after about 3 weeks
Procedure: as §2

VERPE [8] = assay: Herbicidal post-emergence action (Table B10); assay type: in vivo, Veronica persica; settings: application rate 1280 g/ha
Procedure: as §2

KCHSC = assay: Herbicidal pre-emergence action (Table A10); assay type: in vivo, Kochia scoparia; settings: application rate 1280 g/ha; visual grading after ca. 3 weeks
From the text: as §1

COc1cccc(F)c1CN1CCCC2(CCCN(Cc3c(F)cccc3OC)C2=O)C1=O (racemic) [I-033]
pre-emergence activity against POAAN (POAAN [1]; application rate 320 g/ha): 100% | pre-emergence activity against VERPE (VERPE [2]): 90% | pre-emergence activity against DIGSA (DIGSA; application rate 1280 g/ha): 100% | pre-emergence activity against ALOMY (ALOMY): 90% | pre-emergence activity against STEME (STEME): 100%

O=C1N(Cc2c(F)cccc2F)CCCC12CCCN(CC1CCCCC1)C2=O (racemic) [I-034]
pre-emergence activity against POAAN (POAAN [1]; application rate 320 g/ha): 100% | pre-emergence activity against SETVI (SETVI [3]; application rate 320 g/ha): 90% | pre-emergence activity against ECHCG (ECHCG [4]; application rate 1280 g/ha): 90% | pre-emergence activity against DIGSA (DIGSA; application rate 1280 g/ha): 100% | pre-emergence activity against LOLRI (LOLRI; application rate 1280 g/ha): 100% | post-emergence activity against POAAN (POAAN [5]): 90% | pre-emergence activity against STEME (STEME): 100%

O=C1N(Cc2ccccc2F)CCCC12CCCN(Cc1ccccc1Cl)C2=O (racemic) [I-036]
pre-emergence activity against POAAN (POAAN [1]; application rate 320 g/ha): 90% | pre-emergence activity against SETVI (SETVI [3]; application rate 320 g/ha): 100% | pre-emergence activity against ECHCG (ECHCG [4]; application rate 320 g/ha): 100% | pre-emergence activity against MATIN (MATIN; application rate 320 g/ha): 90% | post-emergence activity against SETVI (SETVI [6]): 90% | pre-emergence activity against ALOMY (ALOMY): 90% | pre-emergence activity against LOLRI (LOLRI; application rate 320 g/ha): 100% | post-emergence activity against POAAN (POAAN [5]): 90% | post-emergence activity against ECHCG (ECHCG [7]): 90%

O=C1N(Cc2ccccc2Cl)CCC12CCCN(Cc1cccc(F)c1F)C2=O (racemic) [I-049]
pre-emergence activity against POAAN (POAAN [1]; application rate 320 g/ha): 100% | pre-emergence activity against SETVI (SETVI [3]; application rate 320 g/ha): 100% | pre-emergence activity against ECHCG (ECHCG [4]; application rate 1280 g/ha): 100% | pre-emergence activity against DIGSA (DIGSA; application rate 320 g/ha): 90% | pre-emergence activity against LOLRI (LOLRI; application rate 320 g/ha): 90% | post-emergence activity against ECHCG (ECHCG [7]): 90% | pre-emergence activity against STEME (STEME): 90%

O=C1N(Cc2ccccc2Cl)CCCC12CCCN(Cc1ccccc1Cl)C2=O (racemic) [I-054]
pre-emergence activity against POAAN (POAAN [1]; application rate 320 g/ha): 100% | pre-emergence activity against SETVI (SETVI [3]; application rate 320 g/ha): 100% | pre-emergence activity against ECHCG (ECHCG [4]; application rate 320 g/ha): 100% | pre-emergence activity against VERPE (VERPE [2]): 90% | post-emergence activity against VERPE (VERPE [8]): 90%

O=C1N(Cc2ccccc2)CCCC12CCN(Cc1ccccc1F)C2=O (racemic) [I-059]
pre-emergence activity against POAAN (POAAN [1]; application rate 320 g/ha): 100% | pre-emergence activity against KCHSC (KCHSC): 90% | pre-emergence activity against SETVI (SETVI [3]; application rate 320 g/ha): 100% | pre-emergence activity against ECHCG (ECHCG [4]; application rate 320 g/ha): 100% | pre-emergence activity against MATIN (MATIN; application rate 1280 g/ha): 90% | pre-emergence activity against DIGSA (DIGSA; application rate 320 g/ha): 90% | pre-emergence activity against LOLRI (LOLRI; application rate 1280 g/ha): 100% | post-emergence activity against POAAN (POAAN [5]): 90% | post-emergence activity against ECHCG (ECHCG [7]): 90% | pre-emergence activity against STEME (STEME): 90%

O=C1N(Cc2ccsc2)CCCC12CCCN(Cc1c(F)cccc1F)C2=O (racemic) [I-075]
pre-emergence activity against POAAN (POAAN [1]; application rate 1280 g/ha): 100% | pre-emergence activity against SETVI (SETVI [3]; application rate 320 g/ha): 90% | pre-emergence activity against ECHCG (ECHCG [4]; application rate 320 g/ha): 100% | pre-emergence activity against MATIN (MATIN; application rate 1280 g/ha): 90% | pre-emergence activity against ALOMY (ALOMY): 90% | pre-emergence activity against LOLRI (LOLRI; application rate 320 g/ha): 100% | post-emergence activity against POAAN (POAAN [5]): 90% | post-emergence activity against ECHCG (ECHCG [7]): 90% | pre-emergence activity against STEME (STEME): 100%

Cc1ccccc1CN1CCCC2(CCN(Cc3c(F)cccc3F)C2=O)C1=O (racemic) [I-077]
pre-emergence activity against POAAN (POAAN [1]; application rate 320 g/ha): 100% | pre-emergence activity against SETVI (SETVI [3]; application rate 1280 g/ha): 100% | pre-emergence activity against DIGSA (DIGSA; application rate 320 g/ha): 90% | pre-emergence activity against LOLRI (LOLRI; application rate 320 g/ha): 100% | pre-emergence activity against STEME (STEME): 90%

Cc1ccccc1CN1CCC2(CCCN(Cc3cccc(F)c3F)C2=O)C1=O (racemic) [I-080]
pre-emergence activity against POAAN (POAAN [1]; application rate 320 g/ha): 100% | pre-emergence activity against KCHSC (KCHSC): 100% | pre-emergence activity against SETVI (SETVI [3]; application rate 1280 g/ha): 100% | pre-emergence activity against ECHCG (ECHCG [4]; application rate 1280 g/ha): 100% | pre-emergence activity against DIGSA (DIGSA; application rate 1280 g/ha): 100% | pre-emergence activity against LOLRI (LOLRI; application rate 1280 g/ha): 90% | pre-emergence activity against STEME (STEME): 90%

Cc1ccccc1CN1CCCC2(CCN(Cc3cccc(F)c3F)C2=O)C1=O (racemic) [I-081]
pre-emergence activity against POAAN (POAAN [1]; application rate 320 g/ha): 100% | pre-emergence activity against SETVI (SETVI [3]; application rate 1280 g/ha): 100% | pre-emergence activity against MATIN (MATIN; application rate 1280 g/ha): 90% | pre-emergence activity against DIGSA (DIGSA; application rate 320 g/ha): 90% | pre-emergence activity against LOLRI (LOLRI; application rate 1280 g/ha): 90% | pre-emergence activity against STEME (STEME): 90%
